Results reported in patent US6632816B1, “Aromatic derivatives as HIV aspartyl protease inhibitors” (Pharmacor Inc., priority 2002, dated 2003).

Experiments:
[1] = tested on: HIV-1 laboratory viral strain NL4.3 (wild type virus); assay: Anti-viral assay in vitro (MTT, infected MT-4 cells); type: cell-based; settings: Human immunodeficiency virus 1, MT4, 144 h; MT-4 cells infected with NL4.3, six days, MTT assay; read-out: EC50
Protocol: Anti-viral and Cytotoxicity Assays In Vitro
To evaluate the EC50 of our compounds, various drug concentrations are incubated with the infected cell for six days and then the metabolic activity of the cells is monitored by the MTT assay. (See A. J. Japour et al, Antimicrobial Agents and Chemotherapy, 37, 1095-1101, 1993 and R. Pauwels et al. Journal of Virological Methods, 20, 309-321, 1988)
We use the laboratory viral strain NL4.3 as wild type virus and the cell line used is MT-4 which is a T-cell line highly sensitive to HIV-1. We also use some WT clinical strains. To address the resistance issue we assay the inhibitors with NL4.3 mutants which are designed to be resistant to specific commercially,available inhibitors

HIV protease = HIV protease (Human immunodeficiency virus type 1 group M subtype B, UniProt P04585); assay: biochemical
Source text: Enzymatic Assay for Determining the Inhibition Constant (Ki) of Synthetic Compounds Targeting the HIV Protease
This is a fluorometric assay based on the cleavage by protease of a substrate carrying a donor group (EDANS) and an acceptor group (DABCYL) on each side of the cleavage site, interacting together through fluorescence resonance energy transfer (FRET) as described by Matayoshi et al. (Science 247:954-954, 1990).
After calculation of Vo and Vi, the inhibition constant (Ki) of the compound is determined using the equation of Henderson: [formula]
where Vo=the enzyme's initial velocity
Vi=the enzyme velocity in the presence of the inhibitory compound,
[I]=inhibitor concentration, [S]=substrate concentration,
Km=Michaelis-Menten constant and Kiapp=apparent Ki
Graphs are traced and the Ki determined using GraphPad Prism software v.

Compound | EC50 [1] [nM] | Ki (HIV protease) [nM]
CC(=O)N[C@H](C(=O)NCCCC[C@@H](CO)N(CC(C)C)S(=O)(=O)c1ccc(N)cc1)C(c1ccccc1)c1ccccc1 [Example 71, (2S,5S)-2-Acetylamino-N-{5-[(4-amino-benzenesulfonyl)-isobutyl-amino]-6-hydroxy-hexyl}-3,3-diphenyl-propionamide] | 66 | 1.5
CC(C)CN([C@H](CO)CCCCNC(=O)[C@H](Cc1ccc2ccccc2c1)NC(=O)N1CCOCC1)S(=O)(=O)c1ccc(N)c(Cl)c1 [Example 51, (1S,5S)-Morpholine-4-carboxylic Acid (1-{5-[(4-Amino-3-chloro-benzenesulfonyl)-isobutyl-amino]-6-hydroxy-hexylcarbamoyl}-2-naphthalen-2-yl-ethyl)-amide] | 194 | 0.8
CC(C)CN([C@H](CO)CCCCNC(=O)[C@H](Cc1ccc2ccccc2c1)NC(=O)C1CC1)S(=O)(=O)c1ccc(N)cc1 [Example 47, (1S,5S)-Cyclopropanecarboxylic Acid (1-{5-[(4-Amino-benzenesulfonyl)-isobutyl-amino]-6-hydroxy-hexylcarbamoyl}-2-naphthalen-2-yl-ethyl)-amide] | 323 | 1.4
COC(=O)NC(Cc1ccccc1-c1ccccc1)C(=O)NCCCC(CO)N(CC(C)C)S(=O)(=O)c1ccc(N)cc1 [Example 3, (1R,S,4S)-(1-{4-[(4-Amino-benzenesulfonyl)-isobutyl-amino]-5-hydroxy-pentylcarbamoyl}-2-biphenyl-2-yl-ethyl)-carbamic Acid Methyl Ester] | 64 | 2.4
CC(=O)N[C@@H](Cc1ccc2ccccc2c1)C(=O)NCCCC[C@@H](CO)N(CC(C)C)S(=O)(=O)c1ccc(N)cc1 [Example 48, (2S,5S)-2-Acetylamino-N-{5-[(4-amino-benzenesulfonyl)-isobutyl-amino]-6-hydroxy-hexyl}-3-naphthalen-2-yl-propionamide] | 948 | 3.6
CC(C)CN([C@H](CO)CCCCNC(=O)[C@H](Cc1cccc2ccccc12)NC(=O)N1CCOCC1)S(=O)(=O)c1ccc2c(c1)OCO2 [Example 66, (1S,5S)-Morpholine-4-carboxylic Acid (1-{5-[(Benzo[1,3]dioxole-5-sulfonyl)-isobutyl-amino]-6-hydroxy-hexylcarbamoyl}-2-naphthalen-1-yl-ethyl)-amide] | 409 | 1.1
CC(C)CN([C@H](CO)CCCCNC(=O)[C@H](Cc1ccc2ccccc2c1)NC(=O)c1cnccn1)S(=O)(=O)c1ccc(N)cc1 [Example 62, (1S,5S)-Pyrazine-2-carboxylic Acid (1-{5-[(4-Amino-benzenesulfonyl)-isobutyl-amino]-6-hydroxy-hexylcarbamoyl}-2-naphthalen-2-yl-ethyl)-amide] | 361 | 2.1
CC(C)CN([C@H](CO)CCCCNC(=O)[C@H](Cc1ccc2ccccc2c1)NC(=O)C(C)(C)C)S(=O)(=O)c1ccc(N)cc1 [Example 46, (1S,5S)-N-(1-{5-[(4-Amino-benzenesulfonyl)-isobutyl-amino]-6-hydroxy-hexylcarbamoyl}-2-naphthalen-2-yl-ethyl)-2,2-dimethyl-propionamide] | 167 | 0.809
CC(C)CN([C@H](CO)CCCCNC(=O)[C@H](Cc1cccc2ccccc12)NC(=O)N1CCOCC1)S(=O)(=O)c1ccc(F)c(N)c1 [Example 53, (1S,5S)-Morpholine-4-carboxylic Acid (1-{5-[(3-Amino-4-fluoro-benzenesulfonyl)-isobutyl-amino]-6-hydroxy-hexylcarbamoyl}-2-naphthalen-1-yl-ethyl)-amide] | 40 | 0.626
COC(=O)C(=O)N[C@@H](Cc1cccc2ccccc12)C(=O)NCCC[C@@H](CO)N(CC(C)C)S(=O)(=O)c1ccc(N)cc1 [Example 11, (1S,4S)-N-(1-{4-[(4-Amino-benzenesulfonyl)-isobutyl-amino]-5-hydroxy-pentylcarbamoyl}-2-naphthalen-1-yl-ethyl)-oxalamic Acid Methyl Ester] | 64000 | 5
COc1ccc(S(=O)(=O)N(CC(C)C)[C@H](CO)CCCCNC(=O)[C@H](Cc2cccc3ccccc23)NC(=O)N2CCOCC2)cc1 [Example 45, (1S,5S)-Morpholine-4-carboxylic Acid (1-{6-Hydroxy-5-[isobutyl-(4-methoxy-benzenesulfonyl)-amino]-hexylcarbamoyl}-2-naphthalen-1-yl-ethyl)-amide] | 597 | 1.5
COC(=O)N[C@H](C(=O)NCCCC[C@@H](CO)N(CC(C)C)S(=O)(=O)c1ccc(F)cc1F)C(c1ccccc1)c1ccccc1 [Example 80, (1S,5S)-(1-{5-[(2,4-Difluoro-benzenesulfonyl)-isobutyl-amino]-6-hydroxy-hexylcarbamoyl}-2,2-diphenyl-ethyl)-carbamic Acid Methyl Ester] | 48 | < 3.8
CC(C)CN([C@H](CO)CCCNC(=O)[C@H](Cc1cccc2ccccc12)NC(=O)N1CCOCC1)S(=O)(=O)c1ccc(N)cc1 [Example 4, (1S,4S)-Morpholine-4-carboxylic Acid (1-{4-[(4-Amino-benzenesulfonyl)-isobutyl-amino]-5-hydroxy-pentylcarbamoyl}-2-naphthalen-1-yl-ethyl)-amide] | 728 | 1.4
COc1ccc(-c2ccccc2C[C@H](NC(=O)N2CCOCC2)C(=O)NCCCC[C@@H](CO)N(CC(C)C)S(=O)(=O)c2ccc(N)cc2)cc1 [Example 38, (1S,5S)-Morpholine-4-carboxylic Acid [1-{5-[(4-Amino-benzenesulfonyl)-isobutyl-amino]-6-hydroxy-hexylcarbamoyl}-2-(4′-methoxy-biphenyl-2-yl)-ethyl]-amide] | 93 | 0.533
CC(C)CN([C@H](CO)CCCCNC(=O)[C@H](Cc1ccc2ccccc2c1)NC(=O)c1ccncc1)S(=O)(=O)c1ccc(N)cc1 [Example 55, (1S,5S)-N-(1-{5-[(4-Amino-benzenesulfonyl)-isobutyl-amino]-6-hydroxy-hexylcarbamoyl}-2-naphthalen-2-yl-ethyl)-isonicotinamide] | 110 | 1.3
CC(C)CN([C@H](CO)CCCCNC(=O)[C@@H](NC(=O)N1CCOCC1)C(c1ccccc1)c1ccccc1)S(=O)(=O)c1ccc(N)cc1 [Example 40, (1S,5S)-Morpholine-4-carboxylic Acid (1-{5-[(4-Amino-benzenesulfonyl)-isobutyl-amino]-6-hydroxy-hexylcarbamoyl}-2,2-diphenyl-ethyl)-amide] | 78 | 0.512
COC(=O)N[C@H](C(=O)NCCCC[C@@H](CO)N(CC(C)C)S(=O)(=O)c1ccc(N)c(Cl)c1)C(c1ccccc1)c1ccccc1 [Example 50, (1S,5S)-(1-{5-[(4-Amino-3-chloro-benzenesulfonyl)-isobutyl-amino]-6-hydroxy-hexylcarbamoyl}-2,2-diphenyl-ethyl)-carbamic Acid Methyl Ester] | 95 | 0.776
COC(=O)N[C@@H](Cc1ccccc1-c1cccc(F)c1)C(=O)NCCCC[C@@H](CO)N(CC(C)C)S(=O)(=O)c1ccc(N)cc1 [Example 52, (1S,5S)-[1-{5-[(4-Amino-benzenesulfonyl)-isobutyl-amino]-6-hydroxy-hexylcarbamoyl}-2-(3′-fluoro-biphenyl-2-yl)-ethyl]-carbamic Acid Methyl Ester] | 152 | 0.7
CC(C)CN(C(CO)CCCCNC(=O)C(NC(=O)C1CCOC1)C(c1ccccc1)c1ccccc1)S(=O)(=O)c1ccc(N)cc1 [Example 77, (1S,3R,S,5S)-Tetrahydro-furan-3-carboxylic Acid (1-{5-[(4-Amino-benzenesulfonyl)-isobutyl-amino]-6-hydroxy-hexylcarbamoyl}-2,2-diphenyl-ethyl)-amide] | 68 | 0.581
COC(=O)N[C@H](C(=O)NCCCC[C@@H](CO)N(CC(C)C)S(=O)(=O)c1ccc(F)c(N)c1)C(c1ccccc1)c1ccccc1 [Example 58, (1S,5S)-(1-{5-[(3-Amino-4-fluoro-benzenesulfonyl)-isobutyl-amino]-6-hydroxy-hexylcarbamoyl}-2,2-diphenyl-ethyl)-carbamic Acid Methyl Ester] | 25 | 0.65
COC(=O)N[C@@H](Cc1ccccc1-c1ccc(OC)cc1)C(=O)NCCCC[C@@H](CO)N(CC(C)C)S(=O)(=O)c1ccc(N)cc1 [Example 31, (1S,5S)-[1-{5-[(4-Amino-benzenesulfonyl)-isobutyl-amino]-6-hydroxy-hexylcarbamoyl}-2-(4′-methoxy-biphenyl-2-yl)-ethyl]-carbamic Acid Methyl Ester] | 118 | 0.667
CC(C)CN([C@H](CO)CCCCNC(=O)[C@@H](NC(=O)c1cccnc1)C(c1ccccc1)c1ccccc1)S(=O)(=O)c1ccc(N)cc1 [Example 73, (1S,5S)-N-(1-{5-[(4-Amino-benzenesulfonyl)-isobutyl-amino]-6-hydroxy-hexylcarbamoyl}-2,2-diphenyl-ethyl)-nicotinamide] | 39 | 0.681
CC(C)CN([C@H](CO)CCCCNC(=O)[C@@H](NC(=O)c1ccncc1)C(c1ccccc1)c1ccccc1)S(=O)(=O)c1ccc(N)cc1 [Example 74, (1S,5S)-N-(1-{5-[(4-Amino-benzenesulfonyl)-isobutyl-amino]-6-hydroxy-hexylcarbamoyl}-2,2-diphenyl-ethyl)-isonicotinamide] | 32 | 0.647
